Source: patent publication US12202829B2, “Heterocyclic compound” (FIMECS, Inc., priority 2018, dated 2025)
Where a name gives a salt, the structure may show the parent alone.

Target: T1, human XIAP_BIR3 domain purified protein (Homo sapiens, UniProt P98170)
T1 construct: purchased R & D
Assay: XIAP binding inhibitory activity, HTRF method with b-Smac ligand
Settings: for IC50: second symbol of the cell, read-out: XIAP binding 50% inhibitory concentration (IC50 value); for inhibition at 3 µM: test compound 3 μM, first symbol of the cell, read-out: XIAP binding inhibition rate when the concentration of the test compound is 3 μM
Procedure, shortened: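 HTRF competition: human XIAP BIR3 and C-terminally biotinylated Smac peptide AVPIAQK, each diluted to 90 nM before addition, in HEPES pH 7.5 buffer with NaCl, BSA, Triton X-100. Eu-cryptate anti-His/streptavidin-XL665 detection after ≥4 h at room temperature; inhibition % from 665/615 ratio versus no-compound control.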

T1 sequence (P98170 252-356 limits assumed): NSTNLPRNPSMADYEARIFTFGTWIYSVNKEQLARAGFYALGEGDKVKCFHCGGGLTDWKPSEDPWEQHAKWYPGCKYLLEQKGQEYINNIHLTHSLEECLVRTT

| SMILES | IC50 [nM] | inhibition at 3 µM [%] |
| --- | --- | --- |
| CN[C@@H](C)C(=O)N[C@H](C(=O)N1CCN(C(=O)c2cc3c(OCCOCCOCCO)c(F)c(F)cc3n2C)CC1)C1CCCCC1 [Example 67, (S)—N—((S)-1-Cyclohexyl-2-(4-(5,6-difluoro-4-(2-(2-(2-hydroxyethoxy)ethoxy)ethoxy)-1-methyl-1H-indole-2-carbonyl)piperazin-1-yl)-2-oxoethyl)-2-(methylamino)propanamide] | 300 to 3000 |  |
| CN[C@@H](C)C(=O)N[C@H](C(=O)N1CCN(C(=O)c2ccc3nn(C)cc3c2)CC1)C1CCCCC1 [Example 22, (S)-N-((S)-1-cyclohexyl-2-(4-(2-methyl-2H-indazole-5-carbonyl)piperazin-l-yl)-2-oxoethyl)-2-(methylamino)propanamide] |  | 25 to 50 |
| CN[C@@H](C)C(=O)N[C@H](C(=O)N1CCN(C(=O)c2c(C(=O)NCCOCCOCC(=O)N3CCN(c4cc(Nc5ncc(C(=O)Nc6c(C)cccc6Cl)s5)nc(C)n4)CC3)c3cc(F)ccc3n2C)CC1)C1CCCCC1 [Example 85, N-(2-chloro-6-methylphenyl)-2-((6-(4-(2-(2-(2-(2-(4-((S)-2-cyclohexyl-2-((S)-2-(methylamino)propanamido)acetyl)piperazine-1-carbonyl)-5-fluoro-1-methyl-1H-indole-3-carboxamido)ethoxy)ethoxy)acetyl)piperazin-1-yl)-2-methylpyrimidin-4-yl)amino)thiazole-5-carboxamide] |  | 50 to 75 |
| COc1ccc2cc(C(=O)N3CCN(C(=O)CN4C[C@@H](C)NC[C@@H]4CN4CCOC[C@H]4C)CC3)n(C)c2c1 [Example 36, 1-(4-(6-Methoxy-1-methyl-1H-indole-2-carbonyl)piperazin-1-yl)-2-((2R,5R)-5-methyl-2-(((R)-3-methylmorpholino)methyl)piperazin-1-yl)ethan-1-one] |  | > 75 |
| CN[C@@H](C)C(=O)N[C@H](C(=O)N1CCN(C(=O)c2c(C(=O)NCCOCCOCCOCC(=O)N3CCN(c4cc(Nc5ncc(C(=O)Nc6c(C)cccc6Cl)s5)nc(C)n4)CC3)c3cc(F)ccc3n2C)CC1)C1CCCCC1 [Example 84, N-(2-chloro-6-methylphenyl)-2-((6-(4-(1-(2-(4-((S)-2-cyclohexyl-2-((S)-2-(methylamino)propanamido)acetyl)piperazine-1-carbonyl)-5-fluoro-1-methyl-1H-indol-3-yl)-1-oxo-5,8,11-trioxa-2-azatridecan-13-oyl)piperazin-1-yl)-2-methylpyrimidin-4-yl)amino)thiazole-5-carboxamide] |  | 50 to 75 |
| CN[C@@H](C)C(=O)N[C@H](C(=O)N1CCN(C(=O)c2c(C(=O)NCC(=O)OC)c3ccc(OC)cc3n2C)CC1)C1CCCCC1 [Example 27, Methyl (2-(4-((S)-2-cyclohexyl-2-((S)-2-(methylamino)propanamido)acetyl)piperazine-1-carbonyl)-6-methoxy-1-methyl-1H-indole-3-carbonyl)glycinate Hydrochloride] |  | > 75 |
| CN[C@@H](C)C(=O)N[C@H](C(=O)N1CCN(C(=O)c2c(C(=O)NCCOCCOCCNC(=O)C[C@@H]3N=C(c4ccc(Cl)cc4)c4c(sc(C)c4C)-n4c(C)nnc43)c3ccc(OC)cc3n2C)CC1)C1CCCCC1 [Example 72, N-(2-(2-(2-(2-((S)-4-(4-Chlorophenyl)-2,3,9-trimethyl-6H-thieno[3,2-f][1,2,4]triazolo[4,3-a][1,4]diazepin-6-yl)acetamido)ethoxy)ethoxy)ethyl)-2-(4-((S)-2-cyclohexyl-2-((S)-2-(methylamino)propanamido)acetyl)piperazine-1-carbonyl)-6-methoxy-1-methyl-1H-indole-3-carboxamide Hydrochloride] | < 300 |  |
